Experimental data taken from article PMC10472371, “Discovery of E2730, a novel selective uncompetitive GAT1 inhibitor, as a candidate for anti‐seizure medication” (Epilepsia Open, 2023).
pEC50, pIC50: −log10 of the molar value. Where two headings read alike, the source gives them in different places. Marks after values point to notes of the source that are not given here.

Assays:
corneal kindling mice = conditions: cited from earlier work
hNav1.2 = target: T1, hNav1.2 (Homo sapiens, UniProt Q99250); experiment: Veratridine-induced hNav1.2 activation in CHO cells, membrane potential assay; assay type: cell-based; conditions: veratridine 50 μM
T1 construct: expressed in transfected cells; host or cells: CHO
Protocol: Data represent the mean ± SEM of three independent experiments. Effects of E2730 and desipramine (Sigma-Aldrich, MO) on hNav1.2 activity were evaluated in CHO cells stably expressing hNav1.2 using a fluorescent-based membrane potential assay (Molecular Devices, CA). Activation of hNav1.2 was induced by veratridine (50 μM) and the change of fluorescence (excitation wavelength, 480 nm; emission wavelength, 540 nm) was recorded using Fluorescence Drug Screening System 6000 (Hamamatsu Photonics, Japan).

[1] = target: T2, hGABAAR (containing α1, β3, and γ2 subunits) (Homo sapiens, UniProt P14867+P18507+P28472); experiment: GABA-induced current in hGABAAR-expressing HEK-293 cells, whole-cell patch-clamp; assay type: cell-based
T2 construct: expressed in transfected cells; host or cells: HEK-293
Protocol: Data represent the mean ± SEM of 3 independent experiments. Control response is GABA (13 μM)-induced current amplitude. […] Cells in voltage clamp were maintained at -80 mV throughout the experiments following the voltage protocol.

amygdala kindling rats = experiment: Amygdala kindling in rats; assay type: in vivo, rat
Text: A tripolar electrode was implanted into the basolateral amygdala of Wistar‐Kyoto rats (male, 7 weeks old; Charles River Laboratories Japan, Japan). After at least 5 days of recovery, the amygdala was stimulated using an electronic stimulator at currents starting at 0.04 mA (50 Hz, 1 millisecond monophasic square‐wave pulses, 1‐second duration each) then increasing by 25% to a 30‐second duration until the after‐discharge threshold (ADT) was attained. ADT was defined as the current at which abnormal electroencephalogram and at least Racine's stage‐1 seizure behavior were observed. In the Racine's stage, seizure severity was classified as: 1, mouth and facial movements; 2, head nodding; 3, forelimb clonus; 4, rearing; 5, rearing and falling. From the next day onwards, electrical stimulation at the previously determined ADT was performed once daily in each rat. The rats showing ≥3 consecutive Racine stage‐5 seizures were deemed epileptic and used for drug evaluation. The pre‐ADT (i.e. baseline) seizure threshold of each rat was established prior to drug administration. After >1 hour following the determination of pre‐ADT seizure threshold, E2730 (5–50 mg/kg), levetiracetam (25 mg/kg), or vehicle was orally administered to the rats. One hour after the administration, the post‐ADT seizure threshold of each rat was ascertained, and the ratios of post‐ADT to pre‐ADT readings were analyzed.

ddY mice = conditions: ref Levy et al.[39]; cited from earlier work
[2] = test system: 6 Hz-44 mA psychomotor seizure mice; experiment: Pharmaco-resistant 6 Hz-44 mA psychomotor seizures in mice; assay type: in vivo, mouse
Protocol: Psychomotor seizures were stimulated by applying currents (44 mA, 6 Hz, 0.2 millisecond rectangular pulse width, 3‐second duration each) via a corneal electrode (SEN‐7203; Nihon Kohden). E2730 (5–50 mg/kg), levetiracetam (Tokyo Chemical Industry; 20–200 mg/kg), or vehicle was orally administered to ddY mice (male, 5 weeks old; Japan SLC Inc.) 1 hour before electrostimulation. […] Behavioral seizures observed in mice were classified into the following four types: stun, forelimb clonus, twitching of the vibrissae, and Straub‐tail.

[3] = test system: extracellular GABA concentration in mouse hippocampus; experiment: Microdialysis: extracellular GABA concentration in mouse hippocampus; assay type: in vivo; conditions: mouse hippocampus, oral; E2730 10-100 mg/kg, tiagabine 3-30 mg/kg
Protocol: A guide cannula was implanted in the left hippocampus (2.7 mm posterior, 3.3 mm left, and 1.8 mm below from the bregma) of ddY mice (male, 5 weeks old). After 5–7 days of recovery, a microdialysis probe (Eicom) was inserted into the left hippocampus through the guide cannula. The tip of the microdialysis probe reached 4.8 mm below the bregma. The next day, the probe was connected to a perfusion tube and perfused with Ringer solution (containing 147.0 mM NaCl, 4.7 mM KCl, 0.6 mM MgSO4, 2.5 mM CaCl2, 5.0 mM HEPES, pH 7.4) at a flow rate of 1.5 μL/min. After ≥160 minutes of perfusion, collection of the perfusate (30 μL/20 min/fraction) was initiated, and 12 fractions per animal were collected for 240 minutes. E2730 (10–100 mg/kg), tiagabine (3–30 mg/kg), or vehicle was orally administered 72 minutes after initiating sample collection. Tiagabine was used as a reference ASM of a non‐competitive GAT1 inhibitor. Perfusate was switched from Ringer solution to high‐potassium Ringer solution (51.7 mM NaCl, 100.0 mM KCl, 0.6 mM MgSO4, 2.5 mM CaCl2, 5.0 mM HEPES, pH 7.4) after 127 minutes following the collection. GABA concentration in each sample was measured by a high‐performance liquid chromatography with tandem mass spectrometry method.

T2 sequence (P14867 28-456): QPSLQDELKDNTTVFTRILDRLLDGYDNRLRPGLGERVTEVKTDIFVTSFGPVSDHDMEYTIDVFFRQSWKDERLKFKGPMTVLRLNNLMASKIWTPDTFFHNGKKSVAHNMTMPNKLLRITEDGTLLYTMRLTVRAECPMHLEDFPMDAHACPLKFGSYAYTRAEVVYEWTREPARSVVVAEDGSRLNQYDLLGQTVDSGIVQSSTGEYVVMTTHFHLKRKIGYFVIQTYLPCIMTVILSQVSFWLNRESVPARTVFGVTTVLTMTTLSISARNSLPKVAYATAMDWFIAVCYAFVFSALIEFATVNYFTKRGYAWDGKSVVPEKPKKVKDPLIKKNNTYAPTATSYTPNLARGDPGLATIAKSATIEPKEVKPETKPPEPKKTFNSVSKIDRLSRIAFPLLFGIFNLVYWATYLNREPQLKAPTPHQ
T2 sequence (P28472 26-473): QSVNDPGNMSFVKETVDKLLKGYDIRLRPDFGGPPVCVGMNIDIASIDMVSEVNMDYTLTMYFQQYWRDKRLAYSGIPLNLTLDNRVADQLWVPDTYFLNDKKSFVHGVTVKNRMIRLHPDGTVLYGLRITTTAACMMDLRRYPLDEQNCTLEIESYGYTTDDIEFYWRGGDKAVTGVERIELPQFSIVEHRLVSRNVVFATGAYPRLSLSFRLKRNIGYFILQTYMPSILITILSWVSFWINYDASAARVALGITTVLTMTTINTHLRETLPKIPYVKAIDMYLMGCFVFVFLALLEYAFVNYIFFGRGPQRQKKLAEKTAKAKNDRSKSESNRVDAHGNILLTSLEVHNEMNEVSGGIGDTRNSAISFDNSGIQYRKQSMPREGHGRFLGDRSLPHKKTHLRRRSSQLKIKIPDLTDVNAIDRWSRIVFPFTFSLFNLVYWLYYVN
T2 sequence (P18507 40-475): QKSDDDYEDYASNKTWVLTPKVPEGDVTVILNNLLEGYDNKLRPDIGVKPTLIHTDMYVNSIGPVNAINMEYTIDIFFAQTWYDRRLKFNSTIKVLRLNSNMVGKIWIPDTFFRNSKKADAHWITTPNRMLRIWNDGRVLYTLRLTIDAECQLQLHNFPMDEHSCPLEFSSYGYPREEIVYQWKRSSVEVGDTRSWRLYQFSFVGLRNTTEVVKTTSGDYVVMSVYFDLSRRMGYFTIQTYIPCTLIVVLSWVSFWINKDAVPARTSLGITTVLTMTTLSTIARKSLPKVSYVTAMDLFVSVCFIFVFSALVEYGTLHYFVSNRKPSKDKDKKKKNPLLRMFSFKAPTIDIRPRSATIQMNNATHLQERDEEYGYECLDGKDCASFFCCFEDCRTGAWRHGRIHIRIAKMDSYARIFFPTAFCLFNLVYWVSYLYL
T1 sequence (Q99250 whole entry): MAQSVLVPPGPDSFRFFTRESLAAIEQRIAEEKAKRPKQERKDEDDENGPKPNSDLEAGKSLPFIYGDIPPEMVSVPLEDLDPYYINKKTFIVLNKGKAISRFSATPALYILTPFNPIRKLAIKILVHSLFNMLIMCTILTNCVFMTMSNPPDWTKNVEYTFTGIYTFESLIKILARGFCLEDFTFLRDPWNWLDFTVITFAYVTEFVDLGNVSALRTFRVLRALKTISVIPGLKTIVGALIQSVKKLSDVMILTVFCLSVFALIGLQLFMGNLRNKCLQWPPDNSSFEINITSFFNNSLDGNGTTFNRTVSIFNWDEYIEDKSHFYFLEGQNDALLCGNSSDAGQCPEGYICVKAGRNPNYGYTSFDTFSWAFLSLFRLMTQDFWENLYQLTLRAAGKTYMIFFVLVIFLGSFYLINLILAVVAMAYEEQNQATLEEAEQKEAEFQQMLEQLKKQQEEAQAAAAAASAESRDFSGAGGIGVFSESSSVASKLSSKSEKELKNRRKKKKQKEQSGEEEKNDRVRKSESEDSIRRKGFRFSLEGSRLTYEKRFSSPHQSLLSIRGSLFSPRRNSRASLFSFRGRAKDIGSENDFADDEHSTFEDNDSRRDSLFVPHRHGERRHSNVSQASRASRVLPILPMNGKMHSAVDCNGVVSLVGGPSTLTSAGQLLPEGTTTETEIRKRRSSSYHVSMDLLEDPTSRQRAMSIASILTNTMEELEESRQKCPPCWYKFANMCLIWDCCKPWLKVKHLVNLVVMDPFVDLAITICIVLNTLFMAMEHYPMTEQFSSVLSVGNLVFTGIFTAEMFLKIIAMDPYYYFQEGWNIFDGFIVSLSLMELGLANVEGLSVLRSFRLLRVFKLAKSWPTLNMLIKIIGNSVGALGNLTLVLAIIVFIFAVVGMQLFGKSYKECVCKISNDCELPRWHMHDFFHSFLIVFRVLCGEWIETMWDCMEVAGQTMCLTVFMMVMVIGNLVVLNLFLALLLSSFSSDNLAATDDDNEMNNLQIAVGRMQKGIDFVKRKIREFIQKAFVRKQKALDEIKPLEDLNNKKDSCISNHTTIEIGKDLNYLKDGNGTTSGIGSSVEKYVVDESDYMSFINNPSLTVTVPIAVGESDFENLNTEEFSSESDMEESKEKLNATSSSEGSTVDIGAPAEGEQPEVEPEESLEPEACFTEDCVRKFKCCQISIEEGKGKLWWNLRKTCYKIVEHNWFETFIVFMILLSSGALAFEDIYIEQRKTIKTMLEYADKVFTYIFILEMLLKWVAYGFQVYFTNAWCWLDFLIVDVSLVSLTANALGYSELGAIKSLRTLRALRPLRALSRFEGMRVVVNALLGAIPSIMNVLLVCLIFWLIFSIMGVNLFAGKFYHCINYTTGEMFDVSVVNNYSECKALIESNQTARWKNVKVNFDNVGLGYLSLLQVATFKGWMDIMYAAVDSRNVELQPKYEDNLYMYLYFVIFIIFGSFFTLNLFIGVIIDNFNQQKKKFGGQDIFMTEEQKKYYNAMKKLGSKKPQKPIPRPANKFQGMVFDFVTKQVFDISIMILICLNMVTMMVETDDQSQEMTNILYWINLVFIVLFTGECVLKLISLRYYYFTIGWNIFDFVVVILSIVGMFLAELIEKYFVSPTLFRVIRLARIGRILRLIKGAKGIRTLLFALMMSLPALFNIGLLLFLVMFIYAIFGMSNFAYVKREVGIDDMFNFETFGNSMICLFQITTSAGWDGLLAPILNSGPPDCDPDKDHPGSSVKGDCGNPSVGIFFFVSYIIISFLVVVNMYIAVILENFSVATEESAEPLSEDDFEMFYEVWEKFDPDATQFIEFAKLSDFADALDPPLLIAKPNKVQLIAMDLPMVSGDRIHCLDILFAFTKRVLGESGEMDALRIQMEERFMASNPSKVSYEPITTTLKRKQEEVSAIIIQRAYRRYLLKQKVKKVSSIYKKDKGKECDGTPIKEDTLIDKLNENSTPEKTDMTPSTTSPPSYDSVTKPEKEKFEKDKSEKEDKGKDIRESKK

SMILES: NC(=O)N1c2ccccc2C=Cc2ccccc21 [Carbamazepine, carbamazepine]
- ED50 (95% CI) in corneal kindling mice (corneal kindling mice; ref Matagne et al.[40]): 9 ^c (5, 11) mg/kg

SMILES: O=C1CN=C(c2ccccc2Cl)c2cc([N+](=O)[O-])ccc2N1 [Clonazepam, clonazepam]
- ED50 (95% CI) in corneal kindling mice (corneal kindling mice; ref Matagne et al.[40]): 0.04 ^c (0.02, 0.07) mg/kg

SMILES: CNCCCN1c2ccccc2CCc2ccccc21 [Desipramine, desipramine, reference compound]
- pIC50 (hNav1.2): 5.31

SMILES: CN1C(=O)CN=C(c2ccccc2)c2cc(Cl)ccc21 [Diazepam, diazepam]
- Emax at 1 µM ([1]; HEK293, read-out: Emax, potentiation of GABA-induced current amplitude): 218%

SMILES: CCC1(C)CC(=O)NC1=O (stereo not shown) [Ethosuximide, ethosuximide]
- ED50 (95% CI) in corneal kindling mice (corneal kindling mice; ref Matagne et al.[40]): >254 ^c mg/kg

SMILES: CC[C@@H](C(N)=O)N1CCCC1=O [Levetiracetam, levetiracetam]
- post-ADT/pre-ADT ratio (amygdala kindling rats; levetiracetam 25 mg/kg oral): 127%
- Minimum effective dose, amygdala kindling (rat) (amygdala kindling rats; oral, footnote a: minimum effective dose): 25 mg/kg
- TD50 (95% CI) in mouse rotarod test (ddY mice): >500 ^b mg/kg
- ED50 (95% CI) in corneal kindling mice (corneal kindling mice; ref Matagne et al.[40]): 16 ^c (6, 43) mg/kg
- ED50 ([2]; Mus musculus, oral, 1 hour before electrostimulation, ddY mice, read-out: ED50 (95% CI), 6 Hz-44 mA psychomotor seizures): > 200 mg/kg
- anti-seizure efficacy in 6 Hz-44 mA psychomotor seizures ([2]; levetiracetam 20-200 mg/kg oral): did not show ≥50% efficacy

SMILES: CCC1(c2ccccc2)C(=O)NC(=O)NC1=O [Phenobarbital, phenobarbital]
- ED50 (95% CI) in corneal kindling mice (corneal kindling mice; ref Matagne et al.[40]): 11 ^c (7, 15) mg/kg

SMILES: Cc1ccsc1C(=CCCN1CCC[C@@H](C(=O)O)C1)c1sccc1C [Tiagabine, tiagabine, reference compound]
- TD50 (95% CI) in mouse rotarod test (ddY mice): 1.29 ^b mg/kg
- ED50 (95% CI) in corneal kindling mice (corneal kindling mice; ref Madsen et al.[38]): 0.51 ^a mg/kg
- pEC50 ([1]; GABA 13 μM, -80 mV, read-out: EC50, potentiation of GABA-induced current amplitude): 5.32
- Emax at 100 µM ([1]; HEK293, at 100 μM, control response GABA (13 μM)-induced current, read-out: Emax, potentiation of GABA-induced current amplitude): 153%
- effect on basal extracellular GABA concentration [3]: significantly increased
- effect on high-potassium-induced extracellular GABA concentration [3]: significantly increased

SMILES: CCCC(CCC)C(=O)O [Valproate, valproate]
- ED50 (95% CI) in corneal kindling mice (corneal kindling mice; ref Matagne et al.[40]): 110 ^c (83, 143) mg/kg
